The text below walks through data of patent publication US4199568A, “Tetrapeptide amides” (Reckitt & Colman Products Limited, priority 1977, dated 1980).

The test system of one assay is opiate receptor sites. Briefly: transmurally stimulated guinea pig ileum preparation (Kosterlitz and Watt), agonist activity compared with Met-enkephaline. It is filed as cell-based. Conditions: isolated guinea pig ileum twitch response, 0.1 Hz stimulation; dose response curve compared with Met-enkephaline. An excerpt:
Thus for example they have affinity for opiate receptor sites and as such may be useful as anagesics, narcotic antagonists or anti-diarrhoeal agents. The test used for the detection of their agonist activity at opiate receptor sites is that of employing the transmurally stimulated guinea pig ileum preparation described in Kosterlitz H. W., and Watt A. J., Brit. J. Pharmacol, and Chemotherapy 33, […] (1968).
In the above mentioned test method of Kosterlitz and Watt male or female guinea pigs (Duncan Hartley strain) are killed by a blow on the head and a portion of the ileum removed and set up in an isolated organ bath of 50 ml volume. A `twitch` response is produced by low frequency (0.1 Hz) stimulation with 0.5 msec rectilinear pulses. The response is depressed by a large number of different pharmacologically active agents (local anaesthetics, smooth muscle depressants, presynaptic α-receptor stimulants, and narcotic agonists).
A test compound is dissolved in distilled water to produce a stock solution of concentration 1 mg/ml. Serial dilutions are carried out using Krebs solution to product concentrations of 10 ug, 1 ug and 0.1 ug/ml. The compound is tested by adding between 0.1-0.3 ml of the solutions to the organ bath. A dose response curve is then drawn and compared with that for Met-enkephaline.

Assay [1] has as its system phenylquinone induced writhing. In words: mouse phenylquinone induced writhing test (Hendershot and Forsaith). The following applies: administered i.v. It counts as in vivo. How it is done: The compounds were also evaluated in the mouse phenylquinone induced writhing test of Hendershot L. C. and Forsaith J., J. Pharm. Exp. Therap.

Consider `C[C@@H](NC(=O)[C@@H](N)Cc1ccc(O)cc1)C(=O)NCC(=O)N(C)[C@@H](Cc1ccccc1)C(=O)NCCC[S+](C)[O-].Cl` (stereo partly drawn) [H-Tyr-D-Ala-Gly-MePhe-NH(CH2)3 SOMe, L-Tyrosyl-D-alanyl-glycyl-N-methyl-L-phenylalanine-3-methylsulphinylpropylamide hydrochloride], for which the “activity relative to Met-enkephaline” value in the assay on opiate receptor sites was “approximately eleven”. In assay [1], the ED50 was determined as 4.5 µg/kg.

For `CN[C@@H](Cc1ccc(O)cc1)C(=O)N[C@H](C)C(=O)NCC(=O)N(C)[C@@H](Cc1ccccc1)C(=O)NCCC[S+](C)[O-].Cl` (stereo partly drawn) [Me-Tyr-D-Ala-Gly-MePhe-NH(CH2)3 SOMe, N-Methyl-L-tyrosyl-D-alanyl-glycyl-N-methyl-L-phenylalanine-3-methylsulphinylpropylamide hydrochloride], in the assay on opiate receptor sites, the “activity relative to Met-enkephaline” value is recorded as “approximately fifteen”. Further, the ED50 in assay [1] amounted to 4 µg/kg.

A word on the ED50: it is the dose that gives a 50% effect, or the effect in half of the subjects.
